Source: PubChem BioAssay (NCI)
Where “and” joins values, the source holds several entries; their conditions need not be identical. Equal entries are not always repeated.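 Tested at 5 concentrations; 48 h exposure; 96-well plates; endpoints linearly interpolated, else capped at highest concentration. GI50 marks 50% less growth. TGI: total growth inhibition.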

Tests used:
Test in all cases: growth of human tumour cells (NCI), 48 h
[1] = tested on: UO-31 renal
[2] = tested on: OVCAR-3 ovarian
[3] = tested on: UACC-62 melanoma
[4] = tested on: MOLT-4 leukemia
[5] = tested on: MALME-3M melanoma
[6] = tested on: HOP-92 NSCLC
[7] = tested on: NCI-H522 lung
[8] = tested on: OVCAR-5 ovarian
[9] = tested on: SK-MEL-5 melanoma
[10] = tested on: A498 renal

SMILES	GI50 [1]	TGI [1]	GI50 [2]	TGI [2]	GI50 [3]	TGI [3] [µM]	GI50 [4]	GI50 [5]	TGI [5]	GI50 [6] [µM]	TGI [6]	GI50 [7]	TGI [7]	GI50 [8]	TGI [8]	GI50 [9]	TGI [9]	GI50 [10] [µM]	TGI [10]	TGI [4]
COc1ccccc1/C=C/C(=O)/C=C/c1ccccc1O	0.359 µM	1.61 µM	0.314 µM	1 µM	1.16 µM	2.55	0.163 µM	1.82 µM	5.98 µM	1.78	6.08 µM	0.95 µM	2.21 µM	2.16 µM	4.39 µM	1.46 µM	2.78 µM	1.8	3.32 µM	
CNC(=O)c1cc2c(Oc3ccc(NC(=O)C4(C(=O)Nc5ccc(F)cc5)CC4)cc3)ccnc2cc1OC	1.78 µM	6.25 µM	3.48 µM	> 100 µM	1.54 µM	15	2.23 µM	1.66 µM	9.45 µM	1.03	4.75 µM	2.51 µM	> 100 µM	3.17 µM	> 100 µM	2.37 µM	6.51 µM	1.28	3.27 µM	8.18 µM
CC(=O)[O-].CC(=O)[O-].CC(=O)[O-].CC(=O)[O-].[Mo+2].[Mo+2]	> 100 µM	> 100 µM	> 100 µM	> 100 µM	> 100 µM	> 100	> 100 µM	> 100 µM	> 100 µM	39.9	> 100 µM	> 100 µM	> 100 µM	> 100 µM	> 100 µM	> 100 µM	> 100 µM	> 100	> 100 µM	> 100 µM
CCSc1nc(N)c2cn[nH]c2n1	49 µM	> 100 µM	22.1 µM	72.1 µM	18 µM	38.9	39.4 µM	31.2 µM	67 µM	1.37	93.3 µM	62 µM	> 100 µM	21.8 µM	63.1 µM	18.5 µM	43.6 µM	20.7	50.2 µM	> 100 µM
CC(=O)OCC1OC(n2cc([N+](=O)[O-])c(=O)[nH]c2=O)C(OC(C)=O)C(OC(C)=O)C1OC(C)=O (configuration not stated)		> 100 µM		> 100 µM		> 100			> 100 µM		> 100 µM		> 100 µM		> 100 µM		> 100 µM		> 100 µM	> 100 µM
COc1c(Br)cc(Br)c(OC)c1-c1[nH]c(Br)c(Br)c1Br		8.73 µM		14.3 µM		22.4			16.6 µM		7.79 µM		7.25 µM		29 µM		20.5 µM		26 µM	21.8 µM
Cc1nc(Nc2n[nH]c3c2CN(C(=O)N[C@H](CN(C)C)c2ccccc2)C3(C)C)c2sccc2n1	0.229 µM and 1.28 µM	> 4.67 µM and 42.3 µM	0.0255 µM and 0.0584 µM	1.57 µM and 7.36 µM	0.00487 µM and < 0.01 µM	0.154	0.092 µM and 0.276 µM	0.0473 µM and < 0.01 µM	0.497 µM and 2.44 µM		2.7 µM and 0.47 µM	< 0.0168 µM and 0.0398 µM	2.28 µM and 2.74 µM	0.0686 µM and 0.322 µM	> 8.88 µM and 25.2 µM	0.142 µM and 0.162 µM	1.84 µM and 2.26 µM		1.85 µM and 3.25 µM	9.74 µM and 7.04 µM
